Experimental data taken from article PMC5691318 (Journal of the American Chemical Society, 2017).
Where a SMILES comes first, the peptide text is derived from it. [ ]: non-standard residue; d: D form. pS = N[C@@H](COP(=O)(O)O)C(=O)O

What was measured:
[1] = system: 14-3-3ζ/Cdc25CpS216 interaction; experiment: ITC: reinforcement of the 14-3-3ζ/Cdc25CpS216 interaction by CLR01; type: binding; details: 250 μM or 1.5 mM CLR01 vs no CLR01
[2] = system: 14-3-3/Exoenzyme S peptide; details: fluorescence polarization, labeled peptide; ref [31]; cited from earlier work
[3] = Potentiometric pKa determination; type: physicochemical; details: determined potentiometrically
14-3-3/C-Raf peptide = details: fluorescence polarization, labeled peptide; ref [31]; cited from earlier work
14-3-3ζ = biological target: T1, 14-3-3ζ (Homo sapiens, UniProt P63104); experiment: Isothermal titration calorimetry; type: binding
T1 sequence (P63104 1-230): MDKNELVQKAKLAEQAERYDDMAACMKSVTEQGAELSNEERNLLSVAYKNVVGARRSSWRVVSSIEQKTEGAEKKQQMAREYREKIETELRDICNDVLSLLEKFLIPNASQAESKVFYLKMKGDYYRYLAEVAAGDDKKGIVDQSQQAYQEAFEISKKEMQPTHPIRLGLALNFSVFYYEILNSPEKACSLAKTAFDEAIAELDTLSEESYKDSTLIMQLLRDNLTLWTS
T1 sequence (P30307 207-244 partner): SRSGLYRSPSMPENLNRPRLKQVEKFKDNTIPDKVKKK

[4] = system: 14-3-3 with the chloride channel CFTR; details: ref [18]; cited from earlier work
[5] = system: 14-3-3 proteins with the potassium channel TASK3; details: ref [47]; cited from earlier work
[6] = system: TASK3 plasma membrane localization; details: ref [47]; cited from earlier work
[7] = system: 14-3-3 with the protein kinase C-Raf; details: ref [48]; cited from earlier work
Arf1/Arf1GAP = details: ref [48],[49]; cited from earlier work
Cdc25CpS216 peptide [8] = biological target: T2, Cdc25CpS216 peptide (Homo sapiens, not fully specified; phosphoSer216, 250 μM CLR01); experiment: ITC
T2 chain: T1 sequence (P30307 207-244 partner)

Cdc25CpS216 peptide [9] = biological target: T3, Cdc25CpS216 peptide (Homo sapiens, not fully specified; phosphoSer216); experiment: ITC
T3 chain: T1 sequence (P30307 207-244 partner)

Cdc25CpS216 peptide [10] = biological target: T4, Cdc25CpS216 peptide (Homo sapiens, not fully specified; phosphoSer216, 1.5 mM CLR01); experiment: ITC
T4 chain: T1 sequence (P30307 207-244 partner)

In the case of `O=P(O)(O)Oc1c2c(c(OP(=O)(O)O)c3c1C1CC3c3cc4c(cc31)C1CC4c3ccccc31)C1CC2c2cc3c(cc21)C1CC3c2ccccc21` [CLR01], the “reinforcement of the 14-3-3ζ/Cdc25CpS216 interaction” value [1] is given as 2–3 fold, the “effect on binding of Exoenzyme S-derived peptide to 14-3-3” value [2] is given as “inhibited” and the “second pKa value of the hydrogen phosphate group” value [3] is given as 7.4. For the same molecule, the “effect on binding of C-Raf-derived peptide to 14-3-3” value (14-3-3/C-Raf peptide) was “inhibited”.

In the case of `CC[C@H](C)[C@H](NC(=O)[C@@H](NC(=O)[C@H](CC(N)=O)NC(=O)[C@H](CC(=O)O)NC(=O)[C@H](CCCCN)NC(=O)[C@H](Cc1ccccc1)NC(=O)[C@H](CCCCN)NC(=O)[C@H](CCC(=O)O)NC(=O)[C@@H](NC(=O)[C@H](CCC(N)=O)NC(=O)[C@H](CCCCN)NC(=O)[C@H](CC(C)C)NC(=O)[C@H](CCCNC(=N)N)NC(=O)[C@@H]1CCCN1C(=O)[C@H](CCCNC(=N)N)NC(=O)[C@H](CC(N)=O)NC(=O)[C@H](CC(C)C)NC(=O)[C@H](CC(N)=O)NC(=O)[C@H](CCC(=O)O)NC(=O)[C@@H]1CCCN1C(=O)[C@H](CCSC)NC(=O)[C@H](COP(=O)(O)O)NC(=O)[C@@H]1CCCN1C(=O)[C@H](CO)NC(=O)[C@H](CCCNC(=N)N)NC(=O)[C@H](Cc1ccc(O)cc1)NC(=O)[C@H](CC(C)C)NC(=O)CNC(=O)[C@H](CO)NC(=O)[C@H](CCCNC(=N)N)NC(=O)[C@@H](N)CO)C(C)C)[C@@H](C)O)C(=O)N1CCC[C@H]1C(=O)N[C@@H](CC(=O)O)C(=O)N[C@@H](CCCCN)C(=O)N[C@H](C(=O)N[C@@H](CCCCN)C(=O)N[C@@H](CCCCN)C(=O)N[C@@H](CCCCN)C(=O)O)C(C)C` [Cdc25CpS216] (H-SRSGLYRSP[pS]MPENLNRPRLKQVEKFKDNTIPDKVKKK-OH), the Kd (14-3-3ζ) is reported as 5.16 µM.

For `C=CC(C)(C)OC[C@H]1O[C@H](O[C@@H]2C3=C([C@H](C)COC(C)=O)C[C@H](O)[C@]3(C)/C=C3/[C@@H](COC)CC[C@H]3[C@@H](C)[C@H]2O)[C@H](O)[C@@H](OC(C)=O)[C@@H]1O` [fusicoccin], the “stabilization factor of 14-3-3 binding with CFTR” value [4] is given as 9.

In the case of `COCC1CCC2C1=CC1(C)C(=C(C(C)C)C3CCOC31)C(OC1OC3COC(C)(C)OC3C(O)C1O)C(O)C2C` (stereo not shown) [FC-THF], the “stabilization of the interaction of 14-3-3 proteins with TASK3” value [5] is given as “around 19 fold” and the “increase in plasma membrane localization” value [6] is given as 50%.

For `COCC1O[C@H](O[C@@H]2C3=C(C(C)C)CC[C@]3(C)/C=C3\[C@@H](CC[C@]3(O)COC)[C@@H](C)[C@H]2O)C(O)C2OC3O[C@]12O[C@@]3(C)C1CO1` (stereo partly shown) [cotylenin A], the “stabilization factor of 14-3-3 binding with C-Raf” value [7] is given as 17.

For `C[C@H]1CCC/C=C/[C@@H]2C[C@H](O)C[C@H]2[C@H](O)/C=C/C(=O)O1` [brefeldin A], the “stabilization factor of target protein complex Arf1/Arf1GAP” value (Arf1/Arf1GAP) is given as 10.

B1: 14-3-3ζ (protein)
chain: MDKNELVQKAKLAEQAERYDDMAACMKSVTEQGAELSNEERNLLSVAYKNVVGARRSSWRVVSSIEQKTEGAEKKQQMAREYREKIETELRDICNDVLSLLEKFLIPNASQAESKVFYLKMKGDYYRYLAEVAAGDDKKGIVDQSQQAYQEAFEISKKEMQPTHPIRLGLALNFSVFYYEILNSPEKACSLAKTAFDEAIAELDTLSEESYKDSTLIMQLLRDNLTLWTSDTQGDEAEAGEGGEN
B1 showed a Kd (Cdc25CpS216 peptide [8]) of 2.75 µM, a Kd (Cdc25CpS216 peptide [9]) of 5.16 µM and a Kd (Cdc25CpS216 peptide [10]) of 2.06 µM.
